From patent US20250230193A1, “CYCLIC COMPOUND HAVING SELECTIVE KRAS INHIBITORY EFFECT ON HRAS AND NRAS” (CHUGAI SEIYAKU KABUSHIKI KAISHA, priority 2022, published 2025)
Where a SMILES comes first, the peptide text is derived from it. Bridges are numbered along the chain shown (N, C = ends). [ ]: non-standard residue; d: D form. The star is where a group is joined. hPhe(3-Cl-4-CF3) = N[C@@H](CCc1ccc(C(F)(F)F)c(Cl)c1)C(=O)O; NPrPhe(4-CF3) = CCCN[C@@H](Cc1ccc(C(F)(F)F)cc1)C(=O)O; NEtPhe(4-F) = CCN[C@@H](Cc1ccc(F)cc1)C(=O)O; NMeGly(cPent) = CN[C@H](C(=O)O)C1CCCC1; NMeD = CN[C@@H](CC(=O)O)C(=O)O; NMeL = CN[C@@H](CC(C)C)C(=O)O; NMeNva = CCC[C@H](NC)C(=O)O; Morpholide = C1CN(*)CCO1; NMeA = CN[C@@H](C)C(=O)O; Ac5c = NC1(C(=O)O)CCCC1; Aze = O=C(O)[C@@H]1CCN1; Sar = CNCC(=O)O

Legend:
[1] = target: GDP-bound NRAS wild-type protein (Homo sapiens, UniProt P01111); assay: Binding to NRAS by surface plasmon resonance (SPR), Single Cycle Kinetics; conditions: SPR; for NRAS/KRAS (ratio of KD value with respect to NRAS to KD value with respect to KRAS): GDP-bound NRAS wild-type vs GDP-bound KRAS wild-type
[2] = target: GDP-bound HRAS wild-type protein (Homo sapiens, UniProt P01112); assay: Binding to HRAS by surface plasmon resonance (SPR), Single Cycle Kinetics; conditions: SPR; for HRAS/KRAS (ratio of KD value with respect to HRAS to KD value with respect to KRAS): GDP-bound HRAS wild-type vs GDP-bound KRAS wild-type
GDP-bound HRAS wild-type protein, sequence (P01112 whole entry): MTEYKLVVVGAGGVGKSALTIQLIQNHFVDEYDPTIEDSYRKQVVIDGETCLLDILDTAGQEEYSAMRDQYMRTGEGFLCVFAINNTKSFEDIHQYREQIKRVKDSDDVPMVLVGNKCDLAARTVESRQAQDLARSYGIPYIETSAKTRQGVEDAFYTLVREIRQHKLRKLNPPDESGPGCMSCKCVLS

GDP-bound NRAS wild-type protein, sequence (P01111 whole entry): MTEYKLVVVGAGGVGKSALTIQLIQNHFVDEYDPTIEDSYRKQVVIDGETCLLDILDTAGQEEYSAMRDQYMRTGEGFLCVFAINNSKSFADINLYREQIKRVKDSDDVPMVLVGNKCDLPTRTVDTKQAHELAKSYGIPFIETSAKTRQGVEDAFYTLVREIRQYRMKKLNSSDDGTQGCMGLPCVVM

Row | Structure (SMILES) | NRAS/KRAS (ratio of KD for GDP-bound NRAS wild-type to KD for KRAS) [1] | HRAS/KRAS (ratio of KD for GDP-bound HRAS wild-type to KD for KRAS) [2] | also measured
1 | CCO[C@@H]1C[C@H]2C(=O)NC3(CCC3)C(=O)N(C)[C@@H](C3CCCC3)C(=O)N(C)[C@H](C(=O)N(C)CC)CC(=O)N(C)[C@@H](CC)C(=O)N[C@@H]([C@@H](C)CC)C(=O)N(C)CC(=O)N(C)[C@H]3C/C=C\CCN(C3=O)[C@@H](CC3CCCCC3)C(=O)N(C)CC(=O)N[C@@H](CCc3cc(F)c(C(F)(F)F)c(F)c3)C(=O)N2C1 [PP1552] | – | – | NRAS/KRAS (ratio of KD value for GDP-bound NRAS wild-type protein to KD value for KRAS) ([1]; KD ratio class): A (a compound having 10 or more and less than 20 is denoted as A); HRAS/KRAS (ratio of KD value for GDP-bound HRAS wild-type protein to KD value for KRAS) ([2]; KD ratio class): A (a compound having 10 or more and less than 20 is denoted as A)
2 | CC[C@H](C)[C@@H]1NC(=O)[C@H](CC(C)C)N(C)C(=O)C[C@@H](C(=O)N2CCOCC2)N(C)C(=O)[C@H](C2CCCC2)N(C)C(=O)C2(CCCC2)NC(=O)[C@@H]2CCCN2C(=O)[C@H](CCc2ccc(C(F)(F)F)c(Cl)c2)NC(=O)CN(C)C(=O)[C@H](Cc2ccc(F)cc2)N(CC)C(=O)[C@@H]2CCN2C(=O)[C@H](C)N(C)C1=O [PP0218] ([NMeL]I[NMeA][Aze][NEtPhe(4-F)][Sar][hPhe(3-Cl-4-CF3)]P[Ac5c][NMeGly(cPent)][NMeD]-Morpholide; lactam N-11) | C (A compound having a KD ratio of 0.1 or more and less than 3 is denoted as C) | C (A compound having a KD ratio of 0.1 or more and less than 3 is denoted as C) | –
3 | CCCOC[C@H]1C(=O)N[C@@H]([C@@H](C)CC)C(=O)N(C)CC(=O)N(C)[C@H]2C/C=C\CCN(C2=O)[C@@H](CC2CCC(F)(F)CC2)C(=O)N(C)CC(=O)N[C@@H](CCc2ccc(C(F)(F)F)c(OC)c2)C(=O)N2C[C@@H](C)C[C@H]2C(=O)N(C)C2(CCC2)C(=O)N(C)[C@@H](C2CCCC2)C(=O)N(C)[C@H](C(=O)N(C)C)CC(=O)N1C [PP2377] | – | – | NRAS/KRAS (ratio of KD value with respect to NRAS to KD value with respect to KRAS) [1]: A (a compound having 10 or more and less than 20 is denoted as A); HRAS/KRAS (ratio of KD value with respect to HRAS to KD value with respect to KRAS) [2]: A (a compound having 10 or more and less than 20 is denoted as A)
4 | CCC[C@H]1C(=O)N[C@@H]([C@@H](C)CC)C(=O)N(C)[C@@H](C)C(=O)N2CC[C@H]2C(=O)N(CCC)[C@@H](Cc2ccc(C(F)(F)F)cc2)C(=O)N(C)CC(=O)N[C@@H](CCc2ccc(C(F)(F)F)c(Cl)c2)C(=O)N2CCC[C@H]2C(=O)NC2(CCCC2)C(=O)N(C)[C@@H](C2CCCC2)C(=O)N(C)[C@H](C(=O)N2CCOCC2)CC(=O)N1C [PP0193] ([NMeNva]I[NMeA][Aze][NPrPhe(4-CF3)][Sar][hPhe(3-Cl-4-CF3)]P[Ac5c][NMeGly(cPent)][NMeD]-Morpholide; lactam N-11) | C (A compound having a KD ratio of 0.1 or more and less than 3 is denoted as C) | C (A compound having a KD ratio of 0.1 or more and less than 3 is denoted as C) | –
5 | CCCN1C(=O)[C@@H]2CCN2C(=O)[C@H](C)N(C)C(=O)[C@H]([C@@H](C)CC)NC(=O)[C@H](CC(C)C)N(C)C(=O)C[C@@H](C(=O)N2CCOCC2)NC(=O)[C@H](C2CCCC2)N(C)C(=O)C2(CCCC2)NC(=O)[C@@H]2CCCN2C(=O)[C@H](CCc2ccc(C(F)(F)F)c(Cl)c2)NC(=O)CN(C)C(=O)[C@@H]1Cc1ccc(C(F)(F)F)cc1 [PP0343] ([NMeL]I[NMeA][Aze][NPrPhe(4-CF3)][Sar][hPhe(3-Cl-4-CF3)]P[Ac5c][NMeGly(cPent)]D-Morpholide; lactam N-11) | C (A compound having a KD ratio of 0.1 or more and less than 3 is denoted as C) | B (a compound having 3 or more and less than 10 is denoted as B) | –
6 | CCCN1C(=O)[C@@H]2CCN2C(=O)[C@H](C)NC(=O)[C@H]([C@@H](C)CC)NC(=O)[C@H](CC(C)C)N(C)C(=O)C[C@@H](C(=O)N2CCOCC2)N(C)C(=O)[C@H](C2CCCC2)N(C)C(=O)C2(CCCC2)NC(=O)[C@@H]2CCCN2C(=O)[C@H](CCc2ccc(C(F)(F)F)c(Cl)c2)NC(=O)CN(C)C(=O)[C@@H]1Cc1ccc(C(F)(F)F)cc1 [PP0078] ([NMeL]IA[Aze][NPrPhe(4-CF3)][Sar][hPhe(3-Cl-4-CF3)]P[Ac5c][NMeGly(cPent)][NMeD]-Morpholide; lactam N-11) | C (A compound having a KD ratio of 0.1 or more and less than 3 is denoted as C) | B (a compound having 3 or more and less than 10 is denoted as B) | –
7 | CCO[C@@H]1C[C@H]2C(=O)NC3(CCC3)C(=O)N(C)[C@@H](C3CCCC3)C(=O)N(C)[C@H](C(=O)N(C)C)CC(=O)N(C)[C@@H](CCC(F)F)C(=O)N[C@@H]([C@@H](C)CC)C(=O)N(C)CC(=O)N(C)[C@H]3C/C=C\CCN(C3=O)[C@@H](Cc3ccc(C(F)(F)F)cc3)C(=O)N(C)CC(=O)N[C@@H](CCc3cc(F)c(C(F)(F)F)c(F)c3)C(=O)N2C1 [PP1121] | – | – | NRAS/KRAS (ratio of KD value with respect to NRAS to KD value with respect to KRAS) ([1]; KD ratio): A (a compound having 10 or more and less than 20 is denoted as A); HRAS/KRAS (ratio of KD value with respect to HRAS to KD value with respect to KRAS) ([2]; KD ratio): A (a compound having 10 or more and less than 20 is denoted as A)
